In PubChem BioAssay AID1919003 (Molecular Pharmacology Branch, DTP, NCI, 2023):

Tested on: 786-0 complex spheroids with HUVEC/MSC, growth % test/control
Test: Anticancer human tumor 786-0 cell line growth inhibition [AhR];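 note: compound exposure lasted seven days before the read-out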
Settings: for IC50: curve of first compound; for viability, T/C: stronger effect = lower value
How it was run: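 Complex tumor spheroids co-cultured with HUVEC and human MSC stroma; AhR antagonists tested in combination with standard-of-care and investigational agents. Top concentration at or near clinical Cmax (else 10 microM), half-log dilutions; growth expressed as percent test/control.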

[1] = second compound 0.1 µM, first compound 0.0316 µM
[2] = second compound 0.1 µM, first compound 0.1 µM
[3] = second compound 0.316 µM, first compound 0.0316 µM
[4] = second compound 0.316 µM, first compound 0.1 µM
[5] = second compound 1 µM, first compound 0.0316 µM
[6] = second compound 1 µM, first compound 0.1 µM
[7] = second compound 3.16 µM, first compound 0.0316 µM
[8] = second compound 3.16 µM, first compound 0.1 µM
[9] = second compound 10 µM, first compound 0.0316 µM
[10] = second compound 10 µM, first compound 0.1 µM
[11] = second compound 0.1 µM, first compound 0.316 µM
[12] = second compound 0.1 µM, first compound 1 µM
[13] = second compound 0.1 µM, first compound 3.16 µM
[14] = second compound 0.1 µM, first compound 10 µM
[15] = second compound 0.316 µM, first compound 0.316 µM
[16] = second compound 0.316 µM, first compound 1 µM
[17] = second compound 0.316 µM, first compound 3.16 µM
[18] = second compound 0.316 µM, first compound 10 µM
[19] = second compound 1 µM, first compound 0.316 µM
[20] = second compound 1 µM, first compound 1 µM
[21] = second compound 1 µM, first compound 3.16 µM
[22] = second compound 1 µM, first compound 10 µM
[23] = second compound 3.16 µM, first compound 0.316 µM
[24] = second compound 3.16 µM, first compound 1 µM
[25] = second compound 3.16 µM, first compound 3.16 µM
[26] = second compound 3.16 µM, first compound 10 µM
[27] = second compound 10 µM, first compound 0.316 µM
[28] = second compound 10 µM, first compound 1 µM
[29] = second compound 10 µM, first compound 3.16 µM
[30] = second compound 10 µM, first compound 10 µM

Cn1ncnc1C1c2n[nH]c(=O)c3cc(F)cc(c23)NC1c1ccc(F)cc1 (stereo not given) + Cc1cncc(-c2nc(NCCc3c[nH]c4ccccc34)c3ncn(C(C)C)c3n2)c1
IC50 (second compound 0.1 µM): > 0.1 µM
IC50 (second compound 0.316 µM): > 0.1 µM
IC50 (second compound 1 µM): > 0.1 µM
IC50 (second compound 3.16 µM): > 0.1 µM
IC50 (second compound 10 µM): < 0.000316 µM
viability, T/C (second compound 0.1 µM, first compound 0.000316 µM): 122%
viability, T/C (second compound 0.1 µM, first compound 0.001 µM): 120%
viability, T/C (second compound 0.1 µM, first compound 0.00316 µM): 120%
viability, T/C (second compound 0.1 µM, first compound 0.01 µM): 117%
viability, T/C [1]: 120%
viability, T/C [2]: 115%
viability, T/C (second compound 0.316 µM, first compound 0.000316 µM): 117%
viability, T/C (second compound 0.316 µM, first compound 0.001 µM): 119%
viability, T/C (second compound 0.316 µM, first compound 0.00316 µM): 110%
viability, T/C (second compound 0.316 µM, first compound 0.01 µM): 116%
viability, T/C [3]: 111%
viability, T/C [4]: 116%
viability, T/C (second compound 1 µM, first compound 0.000316 µM): 112%
viability, T/C (second compound 1 µM, first compound 0.001 µM): 111%
viability, T/C (second compound 1 µM, first compound 0.00316 µM): 118%
viability, T/C (second compound 1 µM, first compound 0.01 µM): 99.7%
viability, T/C [5]: 105%
viability, T/C [6]: 119%
viability, T/C (second compound 3.16 µM, first compound 0.000316 µM): 76.6%
viability, T/C (second compound 3.16 µM, first compound 0.001 µM): 77.5%
viability, T/C (second compound 3.16 µM, first compound 0.00316 µM): 78.7%
viability, T/C (second compound 3.16 µM, first compound 0.01 µM): 75.8%
viability, T/C [7]: 72.8%
viability, T/C [8]: 80.4%
viability, T/C (second compound 10 µM, first compound 0.000316 µM): 19.2%
viability, T/C (second compound 10 µM, first compound 0.001 µM): 19.2%
viability, T/C (second compound 10 µM, first compound 0.00316 µM): 18.9%
viability, T/C (second compound 10 µM, first compound 0.01 µM): 17.7%
viability, T/C [9]: 17.4%
viability, T/C [10]: 21.4%

NS(=O)(=O)OCC1CC(n2ccc3c(NC4CCc5ccccc54)ncnc32)CC1O (stereo not given) + Cc1cncc(-c2nc(NCCc3c[nH]c4ccccc34)c3ncn(C(C)C)c3n2)c1
IC50 (second compound 0.1 µM): 0.639 µM
IC50 (second compound 0.316 µM): 0.649 µM
IC50 (second compound 1 µM): 0.581 µM
IC50 (second compound 3.16 µM): 0.306 µM
IC50 (second compound 10 µM): < 0.0316 µM
viability, T/C [1]: 96.8%
viability, T/C [2]: 84.5%
viability, T/C [11]: 74.8%
viability, T/C [12]: 35%
viability, T/C [13]: 10.5%
viability, T/C [14]: 5.21%
viability, T/C [3]: 100%
viability, T/C [4]: 82.9%
viability, T/C [15]: 75.8%
viability, T/C [16]: 36%
viability, T/C [17]: 8.3%
viability, T/C [18]: 4.21%
viability, T/C [5]: 103%
viability, T/C [6]: 83.6%
viability, T/C [19]: 74.2%
viability, T/C [20]: 30.7%
viability, T/C [21]: 8.16%
viability, T/C [22]: 5.53%
viability, T/C [7]: 71.9%
viability, T/C [8]: 66%
viability, T/C [23]: 50.1%
viability, T/C [24]: 16.5%
viability, T/C [25]: 3.65%
viability, T/C [26]: 2.28%
viability, T/C [9]: 6.13%
viability, T/C [10]: 6.79%
viability, T/C [27]: 1.4%
viability, T/C [28]: 1.01%
viability, T/C [29]: 0.49%
viability, T/C [30]: 0.45%

O=C(C=Cc1cccc(S(=O)(=O)Nc2ccccc2)c1)NO + Cc1cncc(-c2nc(NCCc3c[nH]c4ccccc34)c3ncn(C(C)C)c3n2)c1
IC50 (second compound 0.1 µM): 7.06 µM
IC50 (second compound 0.316 µM): 7.68 µM
IC50 (second compound 1 µM): 6.53 µM
IC50 (second compound 3.16 µM): 1.6 µM
IC50 (second compound 10 µM): < 0.0316 µM
viability, T/C [1]: 120%
viability, T/C [2]: 113%
viability, T/C [11]: 112%
viability, T/C [12]: 119%
viability, T/C [13]: 103%
viability, T/C [14]: 26.5%
viability, T/C [3]: 113%
viability, T/C [4]: 118%
viability, T/C [15]: 113%
viability, T/C [16]: 113%
viability, T/C [17]: 112%
viability, T/C [18]: 31.4%
viability, T/C [5]: 113%
viability, T/C [6]: 111%
viability, T/C [19]: 106%
viability, T/C [20]: 106%
viability, T/C [21]: 96.7%
viability, T/C [22]: 22.4%
viability, T/C [7]: 69.2%
viability, T/C [8]: 68.2%
viability, T/C [23]: 59.4%
viability, T/C [24]: 53.7%
viability, T/C [25]: 45%
viability, T/C [26]: 11.8%
viability, T/C [9]: 13.8%
viability, T/C [10]: 8.02%
viability, T/C [27]: 5.17%
viability, T/C [28]: 0.6%
viability, T/C [29]: 2.92%
viability, T/C [30]: 1.45%
